Consider 5 compounds from patent US11857661B2, “Anti-dandruff composition” (Kancor Ingredients Ltd, priority 2018, dated 2024).

For experiment [1], the system named is Malassezia furfur CBS 1878. As to the kind of experiment: Association testing, checkerboard titration (FIC index). Particulars: M. furfur CBS 1878; sample B alone. The class given is cell-based. From the text: (§1) As noted above, the anti-dandruff active portion of the anti-dandruff composition comprises (or consists essentially of) a combination of at least two of the three described anti-dandruff actives (i.e., the punicalagin composition, the first monoterpenoid composition, and the second monoterpenoid composition). The combinations are based on the additive or synergistic relationship between the individual anti-dandruff actives. Inhibition testing of the individual anti-dandruff actives to determine MIC levels followed the principles and general methods disclosed in C. Lens-Lisbonne, et al. “Methods for the evaluation of antibacterial activity of essential oils: applications to essences of thyme and cinnamon,” J. Pharm. Belg., 1987, 42(5): 297-302; and C. Lisbonne “Evaluation of bacteriostatic activity of essential oils and their components,” Doctoral Thesis, Pharmacy Faculty, Marseille, F R 1988. Interactions of bi-component mixtures (Fractional Inhibitory Concentration) were evaluated in accordance with the method described by J. L. Pons et al., “Evaluation of antimicrobial interactions between chlorhexidine, quaternary ammonium compounds, preservatives and excipients,” J. Appl. Bacteriol., 1992, 73, 395-400, to assess their additive or synergistic effects.
Study of Associations. After obtaining the MIC levels for each of the anti-dandruff actives by broth dilution method, a checkerboard titration technique was performed to assess the synergistic activity of the combinations. In order to evaluate the activity of the combinations of the anti-dandruff actives, a Fractional Inhibitory Concentration index (FICindex) was calculated: (FICindex)=FIC^A+FIC^B, where FIC^A and FIC^B represent the minimum concentrations inhibiting the M. furfur growth for anti-dandruff actives A and B, respectively. And FIC^A=MIC^Acombination/MIC^Aalone, and FIC^B=MIC^Bcombination/MIC^Balone.] A mean FIC index was calculated based on the following equation: FICindex=FIC^A+FIC^B. Synergism is defined as FIC≤0.75; additive as FIC˜1; indifference as 1<FIC≤2; and antagonism is defined as FIC>2, as reported by J. L. Pons; N. Bonnaveiro; J. Chevalier; and A. Crémieux, “Evaluation of antimicrobial interactions between chlorhexidine, quaternary ammonium compounds, preservatives and excipients,” J. Appl. Bacteriology, 1992, 73(5), 395-400.

For experiment [2], the system named is Malassezia furfur CBS 1878. The experiment in a line: Minimum inhibitory concentration, broth dilution. The class given is cell-based. Conditions: M. furfur CBS 1878; for minimum inhibition concentration (MIC) value: classic broth dilution protocol.
Source text: Inhibition is defined as giving less than 20% growth compared to a control, as determined by spectrophotometric optical density (OD) reading at 620 nm, using the formula % of growth=[(ODproduct−OCabsorbance-control)]/(ODpositive growth-control).
as §1
Briefly, as is commonly known by those skilled in the art of the instant disclosure, assessment of Malassezia furfur inhibition may be accomplished following standard and accepted practices, such as that described in U.S. Patent Application Publication No. 2008/0249186. Accordingly, an external testing laboratory performed a series of against Malassezia furfur to evaluate antimicrobial activity and interactions (see Lens, et al. “Methods for the evaluation of antimicrobial activity of essential oils,” J. Pharm. Belg. 1987). Inhibitory activity testing was conducted by mixing 100 μl of various dilutions of the test product at a double concentration with an equal volume (100 μl) of a double strength Difco™ Sabouraud dextrose broth supplemented with olive oil, inoculated between 2 to 6×10^5 cfu/mL. After incubation (24-72 hours, at 32.5° C.±2.5° C.), a spectrophotometric reading at 620 nm is performed and the percentage of growth calculated from optical density (OD) measuring each concentration with respect to a positive growth control according to the following equation: % of growth=[ODproduct−ODabsorbance-control)]/(ODpositive growth-control).
Each concentration was tested in triplicate, and two assays were performed per product. The positive growth control consisted of 100 μl 1% agar solution mixed with 100 μl of inoculated broth.
(Broth dilution looks for growth in wells or tubes with falling amounts of substance.)

As to `CC1=CCC(C(C)C)=CC1` [GTP, gamma-terpinene], in experiment [1], the “MIC B Alone %” value is listed as >1%. The “minimum inhibition concentration (MIC) value” in experiment [2] is recorded as > 1%.
For Punicalagins A&B, the “MIC B Alone %” value in experiment [1] amounted to 0.05%. In experiment [2], the “Minimum Inhibitory Concentration, Test 1” value is listed as 0.05%; the “Minimum Inhibitory Concentration, Test 2” value worked out at 0.05%; the “minimum inhibition concentration (MIC) value” came out at 0.05%.
Regarding `O=c1oc2c(O)c(O)cc3c(=O)oc4c(O)c(O)cc1c4c23` [EA, Ellagic Acid], the “MIC B Alone %” value in experiment [1] is recorded as 0.5%. Besides, in experiment [2], the “Minimum Inhibitory Concentration, Test 1” value is 0.5%; the “Minimum Inhibitory Concentration, Test 2” value is on record as 0.5%; the “minimum inhibition concentration (MIC) value” is reported as 0.5%.
In the case of `Cc1ccc(C(C)C)cc1` [PCY, para-cymene], the “MIC B Alone %” value in experiment [1] turned out to be 0.5%. The “minimum inhibition concentration (MIC) value” in experiment [2] is given as 0.5%.
For the compound `Cc1ccc(C(C)C)c(O)c1` [TML, thymol], in experiment [1], the “MIC B Alone %” value was 0.05%. For the same compound, in experiment [2], the “minimum inhibition concentration (MIC) value” stood at 0.05%.
